Reference: patent publication US20030007993A1, “biomedical devices with antimicrobial cationic peptide and protein coatings” (priority 2000, published 2003)
No end group written: not given here.

What was measured:
P. aeruginosa 6294 = test: bacterial adhesion (total counts) and viable counts on coated etafilcon A lenses; type: cell-based, Pseudomonas aeruginosa; parameters: key to Reduction v. control* / Reduction v. total**: “—” indicates no reduction in adhesion; conditions: for Reduction v. control* / Reduction v. total**: strain 6294
Method: (§1) For conducting total counts, etafilcon A lenses were removed from the manufacturers vials, washed three times in 1 ml PBS and then coated with various concentrations of cationic proteins/peptides overnight at 37° C. either individually or in combination. After incubation, the lenses were washed three times in PBS and 0.5 ml of 1×10^8 bacterial cells/ml was added to the lenses. After incubation at ambient temperature for 10 min, the lenses were washed three times in PBS to remove non-adherent or loosely adherent bacteria and stained with crystal violet for 1 min. The number of cells per lens was examined under the microscope. Five grids (0.005625 mm^2) per lens were counted and triplicate lenses for each treatment were assayed.
(§2) For conducting viable counts, etafilcon A lenses were removed from the manufacturers vials, washed three times in 1 ml PBS and then coated with various concentrations of cationic proteins/peptides overnight at 37° C. (either individually or in combination). After incubation, the lenses were washed three times in PBS and 0.5 ml of 1×10^8 bacterial cells/ml was added to the lenses. After incubation at ambient temperature for 10 min, the lenses were washed three times in PBS to remove non-adherent or loosely adherent bacteria. Lenses were then homogenized using 1 ml PBS and a small magnetic stirring bar (octagonal cross-section, 0.5″×0.125″) and stirred at maximum speed for one hour which was sufficient for lens disintegration. Serial dilutions were then made according to the technique of Miles and Misra and aliquots (20 μL) plated out on nutrient agar. After incubation overnight at 37° C., viable bacteria were determined and results expressed as colony forming units/mm^2 after calculation of the surface area of the lens (approximately 310 mm^2).
(§3) The lenses were incubated in concentrations of cationic proteins/peptides that were either effective in solution or the highest concentration available if there was no effect in solution. After rinsing, bacteria were added and numbers of cells analyzed as the total cells per mm^2 of the lens or the number of viable cells per mm^2 of the lens.

S. aureus 31 = test: as above; type: cell-based, Staphylococcus aureus; parameters: key to Reduction v. control* / Reduction v. total**: “—” indicates no reduction in adhesion; conditions: for Reduction v. control* / Reduction v. total**: strain Saur 31; for Reduction v. control*: coated etafilcon A lens compared to adhesion control lens not coated; for Reduction v. total**: compared to the number of total bacterial cells adhered to coated lens (growth of adhered bacteria)
Method: as §1, §2, §3

bacteria = test: surface coatings: adherence and growth of bacteria on the device (summary statements); type: cell-based; conditions: coated lenses, in words; for viability of adhered cells: compared to the cells adhered to the uncoated lens
Method: as §1, §2, §3

[1] = system: Pseudomonas aeruginosa 6294; test: growth of bacteria in solution with cationic proteins/peptides (slow growing in PBS, rapid growing in TSB); type: cell-based
Method: (§4) To assess the effect of the cationic proteins/peptides in solution against rapid growing bacterial cells, bacteria were cultured in Trypticase soy broth (“TSB”) overnight at 35° C. Aliquots (20 μl) of this cell suspension were then added to fresh TSB (10 ml). Different concentrations of the cationic proteins/peptides were added to the fresh broth and incubated for up to 48 h at 35° C. Samples were taken at different time points and the optical density at 660 nm measured as a measure of changes in bacterial numbers was measured.
(§5) To assess the effect of the cationic proteins/peptides in solution against slow growing bacterial cells, cells were grown as previously in TSB. The cells were then harvested by centrifugation and washed in phosphate buffered saline (PBS; NaCl 8 g/l; KCl 0.2 g/l; Na2HPO4 1.15 g/l; KH2PO4 0.2 g/l). The cells were then re-suspended to OD 0.1 (unless otherwise stated) at 660 nm in PBS, different concentrations of cationic proteins/peptides were added and incubated for up to 48 h at 35° C. Samples were taken a different points and numbers of bacteria analyzed using the Miles and Misra technique (i.e. numbers that are viable after plating dilutions onto nutrient agar plates).
(§6) The results obtained in solution for all cationic proteins and peptides studied are shown on Table 3. Most protein/peptides were screened against only P. aeruginosa 6294 and S. aureus 31.
(§7) In Table 3, slow growing cells are those re-suspended in PBS with cationic protein/peptide and rapid growing are those re-suspended in TSB plus cationic protein/peptide. The numbers in μg/ml are in concentration showing peak activity. A “−” sign indicates no reduction in bacterial growth, a “+” sign indicates a 1 to 50% reduction in growth, a “++” sign indicates a 51 to 89% reduction in growth, a “+++” sign indicates a 90 to 98% reduction in growth a “++++” sign indicates a greater than 98% reduction in growth.

[2] = system: gram-positive and gram-negative bacteria; test: growth of bacteria in solution (summary statement); type: cell-based; conditions: in words
Method: as §4, §5, §6

Serratia marcesens Smar5 = test: growth of bacteria in solution with cationic proteins/peptides (slow growing in PBS, rapid growing in TSB); type: cell-based; parameters: key: A “−” sign indicates no reduction in bacterial growth; —: A “−” sign indicates no reduction in bacterial growth; a “+” sign indicates a 1 to 50% reduction in growth; a “++” sign indicates a 51 to 89% reduction in growth; a “+++” sign indicates a 90 to 98% reduction in growth; a “++++” sign indicates a greater than 98% reduction in growth; conditions: Smar 5
Method: as §4, §5, §6, §7

[3] = system: Staphylococcus intermedius Sint 2; test: as above; type: cell-based; parameters: key: A “−” sign indicates no reduction in bacterial growth; —: A “−” sign indicates no reduction in bacterial growth; a “+” sign indicates a 1 to 50% reduction in growth; a “++” sign indicates a 51 to 89% reduction in growth; a “+++” sign indicates a 90 to 98% reduction in growth; a “++++” sign indicates a greater than 98% reduction in growth
Method: as §4, §5, §6, §7

[4] = system: Staphylococcus aureus Saur31; test: as above; type: cell-based; conditions: Saur 31
Method: as §4, §5, §6, §7

[5] = system: Pseudomonas aeruginosa Paer1; test: as above; type: cell-based; conditions: Paer 1; 24 h, 15 μg/ml slow growing
Method: as §4, §5, §6, §7

[6] = system: Pseudomonas aeruginosa 6206; test: as above; type: cell-based; parameters: key: A “−” sign indicates no reduction in bacterial growth; —: A “−” sign indicates no reduction in bacterial growth; a “+” sign indicates a 1 to 50% reduction in growth; a “++” sign indicates a 51 to 89% reduction in growth; a “+++” sign indicates a 90 to 98% reduction in growth; a “++++” sign indicates a greater than 98% reduction in growth
Method: as §4, §5, §6, §7

[7] = coated etafilcon A lens compared to adhesion control lens not coated
[8] = compared to the number of total bacterial cells adhered to coated lens (growth of adhered bacteria)
[9] = slow growing (PBS), 125-1000 μg/ml

Molecule	Reduction v. control* (P. aeruginosa 6294; [7])	Reduction v. total** (P. aeruginosa 6294; [8])	Reduction v. control* (S. aureus 31)	Reduction v. total** (S. aureus 31)	other results
Cecropin A	—	93%	—	—	viability of adhered cells (bacteria): significant reduction in the viability; total adhesion of bacteria (bacteria): did not reduce the total adhesion
Cecropin P1	—	—	—	—	
Defensin HNP-1	—	—	—	—	reduction in bacterial growth ([1]; 2 μg/ml): +(2 μg/ml) (a “+” sign indicates a 1 to 50% reduction in growth)
Magainin 1 (GIGKFLHSAGKFGKAFVGEIMKS; Magainin-1; UniProt P11006 37-59, looked up) [cationic peptide, source frog]	—	—	—	—	
Magainin 2	—	—	—	—	reduction in bacterial growth ([1]; 24 h, 400 μg/ml, slow growing): +++(24 h, (a “+++” sign indicates a 90 to 98% reduction in growth)
Melittin	70%		60%		preventing the growth of gram-positive and gram-negative bacteria in solution [2]: most efficacious; reduction in bacterial growth (Serratia marcesens Smar5; growth state not given, 15 μg/ml): —; reduction in bacterial growth ([3]; 24 h, 15 μg/ml rapid growing): ++++(24 h, (a “++++” sign indicates a greater than 98% reduction in growth); reduction in bacterial growth ([3]; 24 h, 15 μg/ml slow growing): ++++(24 h, (a “++++” sign indicates a greater than 98% reduction in growth); reduction in bacterial growth ([4]; 15 μg/ml rapid growing): ++++ (a “++++” sign indicates a greater than 98% reduction in growth); reduction in bacterial growth ([4]; 24 h, 15 μg/ml slow growing): ++++(24 h, (a “++++” sign indicates a greater than 98% reduction in growth); reduction in bacterial growth ([1]; 24 h, 15 μg/ml slow growing): ++(24 h, (a “++” sign indicates a 51 to 89% reduction in growth); reduction in bacterial growth [5]: ++++(24 h, (a “++++” sign indicates a greater than 98% reduction in growth); initial adhesion of S. aureus 31 (S. aureus 31; coated lenses, in words): reduced initial adhesion
Melittin-1-13 AA	—	—	—	—	reduction in bacterial growth ([4]; 48h, 24h, 1000 μg/ml): ++(48h, (a “++” sign indicates a 51 to 89% reduction in growth); reduction in bacterial growth ([1]; 24h, 1000 μg/ml): ++(24h, (a “++” sign indicates a 51 to 89% reduction in growth)
Nisin			—	50%	reduction in bacterial growth ([1]; 2 μg/ml): ++(2 μg/ml) (a “++” sign indicates a 51 to 89% reduction in growth); viability of adhered cells (bacteria): significant reduction in the viability; total adhesion of bacteria (bacteria): did not reduce the total adhesion
Protamine	80%	80%	—	—	preventing the growth of gram-positive and gram-negative bacteria in solution [2]: most efficacious; reduction in bacterial growth (Serratia marcesens Smar5; 1000 μg/ml slow growing): ++++(1000 (a “++++” sign indicates a greater than 98% reduction in growth); reduction in bacterial growth (Serratia marcesens Smar5; <1000 μg/ml slow growing): −(<1000; reduction in bacterial growth [6, 9]: ++++(slow (a “++++” sign indicates a greater than 98% reduction in growth); reduction in bacterial growth ([3]; rapid growing (TSB), 125-1000 μg/ml): −(rapid; reduction in bacterial growth [3, 9]: ++++ (slow (a “++++” sign indicates a greater than 98% reduction in growth); viability of the cells on the coated lenses (P. aeruginosa 6294; P. aeruginosa 6294, in words): reduced the viability; adhesion of P. aeruginosa 6294 to the lenses (P. aeruginosa 6294; coated lenses, in words): significantly reduced the adhesion
Transferrin					Reduction v. control* (P. aeruginosa 6294; 125 μg/ml, compared to adhesion control lens not coated): —; Reduction v. total** (P. aeruginosa 6294; 125 μg/ml, compared to total bacterial cells adhered to coated lens): —
β Defensin 1 (DHYNCVSSGGQCLYSACPIFTKIQGTCYRGKAKCCK; ends and bridges not checked; cysteine pairing not given here; UniProt P60022 33-68, looked up) [cationic peptide, source human]	—	—	—	—	reduction in bacterial growth ([1]; 24h, 60 μg/ml): ++(24h, (a “++” sign indicates a 51 to 89% reduction in growth)
Secretory leukocyte protease inhibitor (protein, UniProt P03973 26-132, looked up, cationic protein, source human) Antileukoproteinase: SGKSFKAGVCPPKKSAQCLRYKKPECQSDWQCPGKKRCCPDTCGIKCLDPVDTPNPTRRKPGKCPVTYGQCLMLNPPNFCEMDGQCKRDLKCCMGMCGKSCVSPVKA	—	—	—	—	reduction in bacterial growth ([6]; growth state not given, 10-100 μg/ml): —
